Experimental findings from US8557300B2 (priority 2005, dated 2013) are described below.

The subject of data set [1] is sodAsodB mutant of strain PAO1. Conditions: aerobic conditions, LB pH 6.5, 15 mM NO2^−. The protocol: CFU are measured daily and plotted in logarithmic scale. For aerobic samples, strains are grown with vigorous shaking (300 rpm).
For another data set, the system named is mucoid strain FRD1. The following applies: FRD1, CF ultrasupernatants pH 6.24, 15 mM NO2^−. The protocol: CFU are determined (n=3) and plotted as the X±SEM vs. time.
Purulent secretions are harvested from the airways of CF lungs which physicians remove at the time of lung transplantation.

Data set [2] has as its system mucoid FRD1 and nonmucoid FRD1/pmucA in mouse lungs.
Procedure: CD1 mice are infected with FRD1 or FRD1/pmucA.
CD1 mice are infected with ˜10^6 FRD1 or FRD1/pmucA entrapped in agar beads intratracheally. […] On the fifth day, the mice are sacrificed and the viable bacteria from the lung homogenates are enumerated.
The efficacy of HNO2 to kill strain FRD1 in a PA chronic lung infection model is then determined.
For the next data set, the system named is FRD1 in mouse lungs. The following applies: FRD1-infected mice, daily 15 mM NO2^− pH 6.5 for 16 days.
Data set [3] deals with FRD1 and FRD1/pmucA in CD1 mouse airways.
For data set [4], the system named is mucoid CF clinical isolates of PA. On the procedure: (§1) The CFU in the inoculum versus that after a 4 day anaerobic incubation are determined.
(§2) The PA strains used in this study include laboratory strains PAO1 (5), CF isolate FRD1 (6), other sputum isolates from CF patients, and sixteen mucoid isolates. Complementation of the mucA mutant allele of strain FRD1 is achieved by transformation with ptacmucA. Aerobic starter cultures are grown in L-broth (10 g tryptone, 5 g NaCl and 5 g yeast extract, per liter) at 37° C. […] To support anaerobic respiration, KNO3 and/or NaNO2 are added to the medium. The pH of the medium is adjusted with 100 mM sodium phosphate (for pH 6.5) or 100 mM sodium acetate (for pH 5.5). To enumerate viable cells in cultures, colony forming units (CFU) are determined.

Data set [5] has as its system PA mucA, mucB, mucD, algW, algD, algT(U) mutant strains and clinical isolates. On the procedure: Other than mucA, the aforementioned genes are the only reported loci that, when inactivated, allow for mucoid conversion in PA (25-27).
as §2

Data set [6] concerns mucoid FRD1 and nonmucoid FRD1/pmucA. Conditions: 15 mM NO2^−, pH 6.5, anaerobic, 5 days. On the procedure: The black bars indicate non-mucoid FRD1/pmucA and the gray bars indicate mucoid FRD1.
as §2

The subject of data set [7] is PA strains isolated from 5 different young CF patients. The following applies: 15 mM NO2^−. The protocol:
as §2

Data set [8] has as its system mucoid FRD1. The protocol:
as §2

In data set [9] the test system is nonmucoid PAO1, mucoid FRD1, nonmucoid FRD1/pmucA. The following applies: pH 6.5, anaerobic. The protocol: The colony forming units (CFU) are enumerated each day and plotted.
Based upon the slightly acidic pH measurements of segmental and subsegmental bronchi from CF transplant patients, discussed above, well-characterized P. aeruginosa strains are grown at pH 6.5 under strict anaerobic conditions.
as §2

Data set [10] concerns FRD1 and FRD1/pmucA. The protocol: The FRD1 and FRD1/pmucA are seeded on LB agar and buffered at the indicated pH.
Plates are incubated for 2 days under anaerobic conditions.

Data set [11] concerns anaerobic biofilms of FRD1 and FRD1/pmucA. On the procedure:
For the confocal laser microscopic analysis of anaerobic FRD1 biofilms, live cells are stained with syto-9, and dead cells are stained with propidium iodide.
An 8-chambered coverslip system (Lab-Tek Inc., Campbell, Calif.) is used for biofilm architecture and viability experiments. […] Bacterial viability staining and image acquisition are accomplished as described previously by Sparkman et al.
Anaerobic biofilms of strains FRD1 and FRD1/pmucA are grown for 1 day in media containing NO3^−, which supports anaerobic respiration.

Data set [12] concerns PA sputum isolates CF-1 to CF-5. The following applies: CF-1 to CF-4, 15 mM NO2^−, pH 6.5, anaerobic, 1 day. An excerpt: The effect of HNO2 on the killing of sputum isolates from CF patients is also monitored.
Data set [13] concerns CF airway epithelial cultures. On the procedure:
Transepithelial short circuit current (Isc in μA/Cm^2) is measured to monitor any change in bioelectric properties.
A primary culture of human airway epithelial cells is performed. […] LDH is measured using a commercially available spectrophotometric assay kit (Biovision Research Products, Mountain View, Calif.) according to the manufacturer's instructions. Then, the bioelectric properties of cultured airway epithelial cells are analyzed.

For data set [14] the following is noted: apical, cultured CF airway epithelia; preliminary studies. The protocol: (§3) For experiments measuring transepithelial water flux, the primary cultures of airway epithelia are cultured in a specially humidified incubator, to prevent evaporative water loss from the culture surface. […] BD concentration is measured optically and IL-8 concentrations in basolateral media are measured using commercially available antibody pairs (R&D Systems, Minneapolis, Minn.) according to the manufacturer's instructions. […] At various time points, aliquots of apical liquid are aspirated and stored at −20° C.

In data set [15] the test system is CF airway epithelial cultures. Conditions: 15 mM NO2^−, 24 hr. The protocol:
as §3

Data set [16] deals with primary cultures of CF airway epithelia. Conditions: 15 mM NO2^−, 24 hr. On the procedure: as §3
In a further data set the test system is Staphylococcus aureus. The following applies: slightly acidified. An excerpt: The current last resort for treatment against these antibiotic resistant strains is with vancomycin.
The subject of data set [17] is mucoid FRD1 and nonmucoid FRD1/pmucA. The following applies: pH 6.5/15 mM NO2^− versus pH 5.5/[…] NO2^−.
A further data set has as its system nor CB mutant of FRD1. Conditions: pH 6.5.
The subject of data set [18] is human CF airway epithelium. The following applies: up to 20 times the dose required to kill mucoid mucA mutant PA, 2 μl apical, pH 6.5, 24 hr.
For data set [19], the system named is FRD1 and FRD1/pmucA. In words: NO gas exposure of bacterial suspension (FIG. 10). In kind it is cell-based, Pseudomonas aeruginosa. The following applies: 380 nM solution concentration of NO, LB pH 6.5, 24 hr anaerobic. The protocol: A NO gas at 333 ppm is balanced with pure argon and continuously bubbled for 24 hr anaerobically.
Nitric oxide (NO) gas (200 ppm, 0.4 μM) balanced with Ar is anaerobically delivered to a water-jacketed chamber in which ˜10^8 bacteria/ml are suspended. […] Gas flow is constantly maintained at 3 ml/min. Pure Ar gas is used as a control.

The test system of data set [20] is mucoid CF clinical isolates of PA. Format: cell-based, Pseudomonas aeruginosa. The following applies: isolates marked by black arrows in FIG. 6. On the procedure: as §1
Data set [21] concerns mucoid FRD1. Description: Protection of mucoid FRD1 from acidified NO2^− by NO scavengers (FIG. 9). Format: cell-based, Pseudomonas aeruginosa. Conditions: millimolar concentrations (5 mM); LB pH 6.5, 15 mM NO2^−. An excerpt: Line 3 is the FRD1 control bacteria alone.

Like-named read-outs stand apart in the source and are kept apart here.

For `O=NO` [HNO2, nitrous acid], in [1], the “sensitivity of sodAsodB mutant” value is “not sensitive”. For the same compound, the “speed of killing compared with L-broth” value with mucoid strain FRD1 was “killed faster”. In addition, the “decrease of mucoid FRD1 in lung” value is given as more than 3 logs in data set [2] (pH 5.5) and more than 2 logs in [2] (pH 6.5, 15 mM NO2^− intranasal). Besides, the “decrease of nonmucoid FRD1/pmucA in lung” value in [2] (pH 6.5 and pH 5.5) is recorded as “but not nonmucoid FRD1/pmucA, are decreased”. In addition, the “bacteria in lung after long-term treatment” value with FRD1 in mouse lungs is given as “no bacteria detected”. The competitive index in data set [3] (complemented strain FRD1/pmucA, 6 days) was approximately 1.0; in data set [3] ({}) it was approximately 0.2. Moreover, the HNO2 concentration is approximately 10 µM (pH 6.5/15 mM NO2^− and pH 5.5/[…] NO2^−); 10.62 µM (pH 6.5 and 15 mM NO2^−).

As to `O=NO` [NO2^−, nitrite], the “mucA mutant mucoid isolates showing increased susceptibility” value in [4] (15 mM NO2^−, pH 6.5, anaerobic) was 78 out of 82. For the same compound, the “number of mucoid isolates with wild-type mucA allele resistant, out of 12” value in data set [4] (acidified NO2^−) is 8. Moreover, in data set [4] (anaerobic treatment with acidified NO2^−), the “sensitivity of 4 antibiotic-resistant strains” value was “still sensitive”. Also, the “share of isolates killed by more than 2 logs” value in data set [4] (mucA mutant mucoid isolates, 15 mM NO2^−, pH 6.5, anaerobic) was found to be 74%. Besides, in data set [5], the “LD50 for sensitive strains compared with FRD1” value was “almost identical to that for FRD1”; the “sensitivity of FRD1 derived nonmucoid mutants ΔalgD and ΔalgT(U)” value was “equally sensitive”; the “sensitivity of PDO300 (PAO1 mucA22)” value was “sensitive”; the “sensitivity of mucB, mucD and algW mutants of PAO1” value is given as “not sensitive”. Further, in data set [6], the “viability of nonmucoid FRD1/pmucA after mixed incubation” value was “maintains viability”. Also, in data set [6] (three bacterial ratios), the “CFU of mucoid FRD1 after mixed incubation” value is listed as < 10^3 CFU/ml. In addition, in data set [7], the “killing of mucoid variants of patients A, B, C and D” value is listed as 1.9-3.1 logs. Moreover, the LD50 in the data set with mucoid FRD1 [8] (mucoid FRD1, pH 6.5, 24 hr anaerobic) is reported as approximately 3 mM. In addition, in the data set on mucoid FRD1 [8] (pH 6.5), the bacteria killed result is on record as “Ninety to ninety-five” and the “killing on long-term exposure” value was “all organisms are killed”. Further, in data set [9] (15 mM NO2^−, 4 day incubation), the “viability of nonmucoid strains PAO1 and FRD1/pmucA” value was “remained viable”. The compound also yielded a rate of killing in data set [9] (mucoid FRD1, 15 mM NO2^−) of 90 % per day. For the same compound, the “killing versus pH” value in the data set on FRD1 and FRD1/pmucA [10] (FRD1, filter disc 10 μl of 1 M NO2^−, anaerobic 48 hours) was “more effectively at lower pH”. Also, in the data set with FRD1 and FRD1/pmucA [10] (FRD1/pmucA, pH values between 6.0 and 7.5), the “killing versus pH” value is “little or no killing”. In data set [11] (FRD1/pmucA biofilm, acidified NO2^−), the biofilm response result is reported as “resistance to acidified NO2^− is clearly evident”. Further, the “death of biofilm organisms” value in [11] (FRD1 biofilm, 15 mM NO2^−, pH 6.5, 2 days) is given as “nearly complete death of biofilm organisms”. Further, in data set [11] (FRD1 biofilm, 15 mM NO2^−, pH 7.5, 2 days), the “biofilm structure and cell viability relative to control” value is “no difference in biofilm structure and cell viability”. Moreover, the “viability of mucoid mucA mutant sputum isolates” value in [12] is reported as “a sharp decrease in viability”. Also, the “amiloride-sensitive Isc” value in [13] (15 mM NO2^− treated (control 15.4±1.4, p=0.92)) is 15.7±1.7 μA/cm^2. For the same compound, the “UTP-activated Isc” value in data set [13] (15 mM NO2^− treated (control 17.7±3.0, p=0.92)) was determined as 18.1±3.3 μA/cm^2. Further, in data set [13] (NO2^− at varying concentrations), the “basal transepithelial short circuit current (Isc)” value is “not affected”. Further, in data set [14], the “half-life of NO2^− on CF airway surfaces” value is approximately 5 h. For the same compound, in [15], the “transepithelial water flux (Jv)” value is reported as “does not alter transepithelial water flux”. For the same compound, the “immune response as release of IL-8” value in [16] was “does not cause activation of an immune response”. Moreover, the “susceptibility of Staphylococcus aureus incl. MRSA” value in the data set on Staphylococcus aureus is listed as “exhibited susceptibility”. For the same compound, the “killing of mucoid bacteria at identical HNO2 concentrations” value in data set [17] is on record as “equal killing”. Moreover, the “sensitivity of norCB mutant relative to FRD1” value with nor CB mutant of FRD1 is given as approximately 10 fold. Moreover, in data set [2] (mouse, in vivo), the “in vitro sensitivity of organisms recovered from mouse airways after exposure” value is listed as “still sensitive”. For the same compound, the “cytotoxicity by lactate dehydrogenase release” value in data set [18] is recorded as “no cytotoxicity”.

In the case of `O=[N+]([O-])O` [NO3^−, nitrate, reference compound], the “viability patterns of FRD1, PAO1 and FRD1/pmucA” value in data set [9] (15 mM NO3^−) is recorded as “no difference in viability patterns is observed”.

Regarding `[N]=O` [NO, nitric oxide], the “killing of FRD1 by NO/Ar gas mixture” value with FRD1 and FRD1/pmucA [19] is recorded as “is killed”.

As to `NCC[C@H](O)C(=O)N[C@@H]1C[C@H](N)[C@@H](O[C@H]2O[C@H](CN)[C@@H](O)[C@H](O)[C@H]2O)[C@H](O)[C@H]1O[C@H]1O[C@H](CO)[C@@H](O)[C@H](N)[C@H]1O` [amikacin], the “resistance of 4 clinical isolates” value in data set [20] was “highly resistant”.

With `CC1(C)N([O])C(c2ccc(C(=O)O)cc2)=[N+]([O-])C1(C)C` [carboxy-PTIO], the “protection of FRD1 from killing by acidified NO2^−” value in the data set with mucoid FRD1 [21] is “strong protective effect”.

Take `CC(C)(O/N=C(\C(=O)N[C@@H]1C(=O)N2C(C(=O)[O-])=C(C[n+]3ccccc3)CS[C@H]12)c1csc(N)n1)C(=O)O` [ceftazidime]: the “resistance of 4 clinical isolates” value in data set [20] is recorded as “highly resistant”.

Consider `NC[C@H]1O[C@H](O[C@H]2[C@H](O)[C@@H](O[C@H]3O[C@H](CO)[C@@H](O)[C@H](N)[C@H]3O)[C@H](N)C[C@@H]2N)[C@H](N)C[C@@H]1O` [tobramycin], for which the “resistance of 4 clinical isolates” value in data set [20] is “highly resistant”.

For the compound gentamycin, the “resistance of 4 clinical isolates” value in data set [20] is “highly resistant”.
